Series [1] concerns Vaccinia virus, WR strain. To be noted: for TC50: toxic concentration in the Vaccinia virus screen; for activity against vaccinia virus (in words): summary of Table 1.
A further series has as its system anthrax. In words: organism not typed. The format is cell-based.
The next series has as its system E. coli. In words: microbe, parasite or virus in culture. Format: cell-based. Particulars: Escherichia coli.
The subject of a further series is plague. In words: organism not typed. Format: cell-based.
The subject of another series is B. anthracis (Ames). The experiment in a line: microbe, parasite or virus in culture. The format is cell-based. To be noted: Bacillus anthracis.
A further series relates to Y. pestis (CO92). The experiment in a line: microbe, parasite or virus in culture. The format is cell-based. To be noted: Yersinia pestis.
For another series, the system named is B. mallei (ATCC 23344). The experiment in a line: microbe, parasite or virus in culture. The format is cell-based. To be noted: Burkholderia mallei, ATCC23344.
Series [2] relates to B. pseudomallei (ATCC 23342). In words: microbe, parasite or virus in culture. The format is cell-based. Particulars: Burkholderia pseudomallei, ATCC23342.
The test system of another series is F. tularensis (SCHU4). The experiment in a line: microbe, parasite or virus in culture. Particulars: Francisella tularensis. The format is cell-based.
A further series concerns S. aureus (ATCC 29213). The experiment in a line: Test C: MIC against S. aureus (ATCC 29213). To be noted: Staphylococcus aureus, ATCC29213, CAMHB + IV. The format is cell-based.
The test system of another series is E. coli (ATCC 25922). The experiment in a line: Test C: MIC against E. coli (ATCC 25922). Format: cell-based.
The subject of series [3] is P. aeruginosa (ATCC 27853). In words: Test C: MIC against P. aeruginosa (ATCC 27853). The format is cell-based. Particulars: Pseudomonas aeruginosa, ATCC27853, P. aeruginosa (ATCC 27853).
Series [4] deals with Vaccinia virus, WR strain. The experiment in a line: microbe, parasite or virus in culture. To be noted: Orthopoxvirus vaccinia.

SMILES strings stand for the structures. Values after ≈ are worked out from the molar mass of the structure shown. Like-named read-outs stand apart in the source and are kept apart here.

A word on the IC50: it is the point on the concentration scale where inhibition reaches its midpoint. Read a high IC50 as weaker potency in that assay.

`Nc1ccn(C[C@@H](CO)OCP(=O)(O)O)c(=O)n1` [Cidofir, reference compound]: in [1] (Vaccinia virus, WR strain), the “Comments (activity rating)” value is “Inactive”. In series [1], this compound gave a TC50 of more than 100 µg/mL.

Consider `C(CNC12CC3CC(CC(C3)C1)C2)NC12CC3CC(CC(C3)C1)C2` [Compound 6], for which the MIC in the series with anthrax is 1 to 4 µg/mL (≈ 3.04 to 12.2 µM); against E. coli, 4 to 8 µg/mL (≈ 12.2 to 24.3 µM); against plague, 4 µg/mL (≈ 12.2 µM); against B. anthracis (Ames), 0.25 µg/mL (≈ 0.761 µM); against Y. pestis (CO92) it was not above 0.06 µg/mL; in the series on B. mallei (ATCC 23344) it was 2 µg/mL (≈ 6.09 µM). Besides, the MIC in [2] was 2 µg/mL (≈ 6.09 µM); against F. tularensis (SCHU4), not above 0.06 µg/mL; with S. aureus (ATCC 29213), 1 µg/mL; in the series with E. coli (ATCC 25922) (CAMHB + IV), “≦0.06 ug/ml”; in the series on E. coli (ATCC 25922) (Escherichia coli, ATCC25922, CAMHB, read-out: MIC), not above 0.06 µg/mL; in series [3] (CAMHB), 2 µg/mL (≈ 6.09 µM). The MIC in [3] (CAMHB + IV) came out at 4 µg/mL. In addition, the “Comments (activity rating)” value in series [1] (Vaccinia virus, WR strain) is “Active”. The “activity against vaccinia virus (in words)” value in series [1] is given as “moderate to high activity”. In series [1], this compound displayed a TC50 of 5.58 µg/mL (≈ 17 µM). Further, the values for the IC50 (with Tacaribe virus; with Pichinde virus; in series [4]) were 6 µg/mL (≈ 18.3 µM), 11 µg/mL (≈ 33.5 µM) and 0.32 µg/mL (≈ 0.974 µM), respectively.

In the case of `ClN(CCN(Cl)C12CC3CC(CC(C3)C1)C2)C12CC3CC(CC(C3)C1)C2` [Compound 7], the “Comments (activity rating)” value in series [1] (Vaccinia virus, WR strain) was “Moderate”. In addition, the “activity against vaccinia virus (in words)” value in series [1] was “moderate to high activity”. This compound also displayed a TC50 in series [1] of 63.40 µg/mL (≈ 160 µM). Also, the figures for the IC50 (in the series with Tacaribe virus; in the series with Pichinde virus; in series [4]) were 17 µg/mL (≈ 42.8 µM), 3.4 µg/mL (≈ 8.55 µM) and 6.37 µg/mL (≈ 16 µM), respectively.

`NC(=O)c1ncn([C@@H]2O[C@H](CO)[C@@H](O)[C@H]2O)n1` [Ribivirin, reference compound]: in series [1] (Vaccinia virus, WR strain), the “Comments (activity rating)” value is “Moderate” and the IC50 worked out at 27.90 µg/mL (≈ 114 µM). The TC50 in series [1] is more than 100 µg/mL.

The record behind these values is patent publication US8835507B2, “Adamantane derivatives possessing anti-viral and anti-microbial activity” (priority 2012, dated 2014).
